Measured values as given in patent US9789121B2, “Small molecules that replace or agonize p53 function” (BUCK INSTITUTE, priority 2004, dated 2017).
“Also recorded” adds a separate entry of the source.

Assays:
HT29 = assay: G6 sensitivity of colon cell line HT29 (p53 Mt); type: cell-based; settings: listed as Rp53-1
[1] = test system: p53 defective tumor cell line; assay: G6 treatment of p53 defective tumor cell lines; type: cell-based; settings: every p53 defective tumor cell line treated
From the text: (§1) Inherent in the initial drug design was a strategy to develop a therapy that targets mutant p53 containing cells and that would leave healthy cells expressing normal p53 unaffected (FIG. 3).

DU145 = assay: G6 sensitivity of prostate cell line DU145 (p53 Mt); type: cell-based; settings: listed as Rp53-1
SW480 = assay: G6 sensitivity of colon cell line SW480 (p53 Mt); type: cell-based; settings: listed as Rp53-1
[2] = test system: wild type cells from corresponding normal tissue; assay: G6 treatment of wild type cells from corresponding normal tissue; type: cell-based
From the text: as §1

[3] = test system: p53 Reporter in p53 Mt and Null Cells; assay: p53 reporter in p53 Mt and Null cells; type: cell-based
[4] = test system: p53/Bax reporter in HEK293T cells; assay: p53/Bax luciferase reporter system in HEK293T cells; type: cell-based
From the text: To identify p53 mimics, we developed a live mammalian cell system that reports the promotion of the expression of the pro-apoptotic Bax protein. The bax promoter consists of a 372 nucleotide 5′ UTR, a TATAA sequence, and several consensus sequences that bind p53, resulting in up-regulation of Bax expression (see, e.g., FIG. 1). By expressing these sites upstream of the gene encoding luciferase in HEK293T cells, we have established a novel set of reporter cell lines. These cells provide a system which allows identification of both direct activators of Bax expression and replacements of an apoptotic function of p53. In initial studies, cotransfection of a p53 expression plasmid with a reporter bearing oligomerized consensus binding sites yielded strongly luminescent cells, whereas cotransfection with an irrelevant plasmid gave no luminescence. […] By employing the Multi-Probe H liquid handling robotic system and the ultra-sensitive Top-Count luminometer, high-speed screening of thousands of compounds has been enabled at the Buck Institute. We obtained and screened a 2000 compound small molecule library made available by the National Cancer Institute in our p53 reporter system in HEK293T cells.

Lovo = assay: G6 sensitivity of colon cell line Lovo (p53 WT); type: cell-based; settings: listed as Rp53-1
breast cancer cells = assay: Single pulse treatment of breast cancer cells with G6; type: cell-based; settings: single pulse of G6 in the nanomolar range
From the text: Thus G6 appears to be a potent treatment.

[5] = test system: human osteosarcoma xenografted nude mice; assay: G6 treatment of human osteosarcoma xenografted nude mice; type: in vivo
From the text: Initial trials of G6 in human osteosarcoma xenografted nude mice have shown promise (FIG. 10). Mice bearing p53 abnormal tumors have responded well to G6. […] Further mouse studies are currently underway.

ColoHSR = assay: G6 sensitivity of colon cell line ColoHSR (p53 Mt); type: cell-based; settings: listed as Rp53-1
Saos-2 = assay: G6 sensitivity of osteosarcoma cell line Saos-2 (p53 null); type: cell-based; settings: Saos-2, osteosarcoma, listed as Rp53-1
PC3 = assay: G6 sensitivity of prostate cell line PC3 (p53 null); type: cell-based; settings: listed as Rp53-1
MDA-435 = assay: G6 sensitivity of breast cancer cells MDA-435 (p53 Mt); type: cell-based, human; settings: MDA-435, breast, listed as Rp53-1
Method: To assess the ability of the small molecule compound Rp53-1 to mimic the transcription-promoting functions of p53 leading to Bax expression and induction of cell death, p53-mutated MDA-MB-435 and p53-wild-type MCF-7 human breast cancer cells were treated with Rp53-1. […] Lack of toxicity in cells generating normal p53 activity (all other human cells) would reduce possible side effects. Inherent in the initial drug design was a strategy to develop a therapy that targets mutant p53 containing cells and that would leave healthy cells expressing normal p53 unaffected (FIG. 3).

LNcap = assay: G6 sensitivity of prostate cell line LNcap (p53 WT); type: cell-based; settings: listed as Rp53-1

For `Cc1cc(OCc2nc(N)nc(N)c2-c2ccc(Cl)c(Cl)c2)ccc1[N+](=O)[O-]` [G6], the “G6 Sensitivity” value (HT29) was “sensitive”, the “susceptibility to G6” value [1] was “showed susceptibility” and the “G6 Sensitivity” value (DU145) was “sensitive”. For the same compound, the “G6 Sensitivity” value (SW480) was “sensitive”, the “effect of G6 on wild type cells” value [2] was “unaffected” and the “induction of p53 Reporter” value [3] was “induces p53 Reporter”. For the same compound, the “expression of luciferase levels relative to transfected wild-type p53” value ([4]; high concentrations (10 μM)) was “greater than transfected wild-type p53”, the “luciferase expression and activity (p53 reporter)” value ([4]; listed as Rp53-1) was “activates the p53/Bax reporter; also recorded: significant levels of luciferase activity” and the “G6 Sensitivity” value (Lovo) was “resistant”. The “activation of the cell death program / drug efficacy” value (breast cancer cells) was “complete drug efficacy; also recorded: sufficient to activate the cell death program”, the adverse side effects ([5]; human osteosarcoma xenografted nude mice treated with G6) was “none of the mice have shown adverse side effects” and the tumor regression ([5]; nude mice implanted with human osteosarcoma tissue, p53 abnormal tumors) was “complete regression of tumor”. The “G6 Sensitivity” value (ColoHSR) was “sensitive”, the “G6 Sensitivity” value (Saos-2) was “sensitive” and the “G6 Sensitivity” value (PC3) was “sensitive”. The “G6 Sensitivity” value (MDA-435) was “sensitive” and the “G6 Sensitivity” value (LNcap) was “resistant”.
